One assay has as its target T1, C-RAF (Homo sapiens, UniProt P04049, Y340E/Y341E).
T1 construct: His tag (implied by nickel chromatography) (cleaved yes); StrepII tag (cleaved yes); made in house; host or cells: Sf9 insect cells (baculovirus), CRAF and h14-3-3 zeta co-expressed; MEK1 substrate from E. coli
Kind of assay: In vitro Raf activity determination (Alpha Screen, biotinylated kinase-dead MEK1 substrate), C-Raf. In kind it is biochemical. The conditions noted are these: c-Raf approximately 4 nM; ATP 1 μM; pre-incubation 60 minutes; reaction 1 hour at room temperature. In a few lines: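 Full-length C-Raf carrying Y340E/Y341E, co-expressed with 14-3-3ζ in Sf9 cells, at approximately 4 nM, with approximately 10 nM biotinylated kinase-dead MEK1 (K97R) and 1 μM ATP, pH 7.5. Compound preincubated 60 min, reaction 1 hour at room temperature. Phospho-MEK read by AlphaScreen; IC50 by non-linear regression.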

The target of another assay is T2, b-Raf (V600E) (Homo sapiens, UniProt P15056, V600E).
T2 construct: made in house
T2 sequence (P15056 whole entry V600E): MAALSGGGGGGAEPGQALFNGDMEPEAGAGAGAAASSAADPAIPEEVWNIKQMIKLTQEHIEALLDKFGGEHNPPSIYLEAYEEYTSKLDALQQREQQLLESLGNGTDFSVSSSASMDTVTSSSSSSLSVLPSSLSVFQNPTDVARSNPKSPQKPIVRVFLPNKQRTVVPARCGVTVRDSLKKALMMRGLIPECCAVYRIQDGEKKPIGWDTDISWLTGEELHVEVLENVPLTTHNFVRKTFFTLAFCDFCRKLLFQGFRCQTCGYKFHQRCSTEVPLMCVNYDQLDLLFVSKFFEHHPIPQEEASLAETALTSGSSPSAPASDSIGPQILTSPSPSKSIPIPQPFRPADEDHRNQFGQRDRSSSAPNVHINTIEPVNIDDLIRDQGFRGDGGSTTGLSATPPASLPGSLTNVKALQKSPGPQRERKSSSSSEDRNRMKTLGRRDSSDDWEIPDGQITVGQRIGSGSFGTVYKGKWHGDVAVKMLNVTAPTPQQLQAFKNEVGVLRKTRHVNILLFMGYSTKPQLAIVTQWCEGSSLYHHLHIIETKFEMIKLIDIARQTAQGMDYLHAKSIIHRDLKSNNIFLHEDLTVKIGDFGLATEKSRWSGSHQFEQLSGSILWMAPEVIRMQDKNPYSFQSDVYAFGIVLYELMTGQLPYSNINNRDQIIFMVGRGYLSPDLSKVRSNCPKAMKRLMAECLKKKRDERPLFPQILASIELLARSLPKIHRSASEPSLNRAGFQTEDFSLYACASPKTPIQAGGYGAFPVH
Kind of assay: In vitro Raf activity determination (Alpha Screen, biotinylated kinase-dead MEK1 substrate), B-Raf. The assay is classed as biochemical. The note with it: b-Raf (V600E) approximately 4 pM; ATP 10 μM; pre-incubation 60 minutes; reaction 3 hours at room temperature. In short, it runs like this:
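Activated b-Raf(V600E) (~4 pM) pre-incubated 60 min with compound and biotinylated kinase-dead (K97R) MEK1 (~10 nM), then reacted 3 h at room temperature with 10 μM ATP in 50 mM Tris pH 7.5, 15 mM MgCl2, 0.01% BSA, 1 mM DTT. Phospho-MEK detected by AlphaScreen; IC50 by non-linear regression.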

SMILES strings stand for the structures.

T1 sequence (P04049 whole entry Y340E/Y341E): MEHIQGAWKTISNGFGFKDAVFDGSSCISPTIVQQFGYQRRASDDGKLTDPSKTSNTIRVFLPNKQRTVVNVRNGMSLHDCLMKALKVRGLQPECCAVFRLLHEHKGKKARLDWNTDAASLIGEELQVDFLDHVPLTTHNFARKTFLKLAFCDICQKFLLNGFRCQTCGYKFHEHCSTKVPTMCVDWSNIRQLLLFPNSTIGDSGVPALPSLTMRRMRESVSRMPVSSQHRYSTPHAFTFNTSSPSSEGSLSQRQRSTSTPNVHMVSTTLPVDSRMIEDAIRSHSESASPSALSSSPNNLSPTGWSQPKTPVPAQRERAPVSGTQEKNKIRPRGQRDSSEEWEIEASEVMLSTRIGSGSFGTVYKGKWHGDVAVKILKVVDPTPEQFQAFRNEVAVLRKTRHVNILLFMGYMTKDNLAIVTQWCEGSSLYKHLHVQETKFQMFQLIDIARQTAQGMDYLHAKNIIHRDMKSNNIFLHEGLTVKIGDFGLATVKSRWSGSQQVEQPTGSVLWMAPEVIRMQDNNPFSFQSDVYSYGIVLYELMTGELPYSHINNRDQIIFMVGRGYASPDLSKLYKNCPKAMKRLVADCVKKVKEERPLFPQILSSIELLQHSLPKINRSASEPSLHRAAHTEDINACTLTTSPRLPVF
T1 sequence (P63104 whole entry partner): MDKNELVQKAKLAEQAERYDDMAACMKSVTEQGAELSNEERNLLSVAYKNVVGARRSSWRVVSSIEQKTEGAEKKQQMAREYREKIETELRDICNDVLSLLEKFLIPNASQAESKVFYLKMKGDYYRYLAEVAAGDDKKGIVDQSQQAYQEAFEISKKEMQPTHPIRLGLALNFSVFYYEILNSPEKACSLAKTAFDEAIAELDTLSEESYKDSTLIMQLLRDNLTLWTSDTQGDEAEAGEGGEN

For `Cc1ccn(-c2ncc(-c3cc(NC(=O)c4ccnc(C(C)(C)C#N)c4)cnc3C)cc2C#N)n1` [Example 83, N-(5′-cyano-2-methyl-6′-(3-methyl-1H-pyrazol-1-yl)-[3,3′-bipyridin]-5-yl)-2-(2-cyanopropan-2-yl)isonicotinamide], the IC50 was 4.89 nM at C-RAF and 23.7 nM against b-Raf (V600E).
In the same order, the values of `Cc1ccc(NC(=O)c2cc(C3CC3)on2)cc1-c1cnc(N(C)C)c(C#N)c1` [Example 259, N-(3-(5-cyano-6-(dimethylamino)pyridin-3-yl)-4-methylphenyl)-5-cyclopropylisoxazole-3-carboxamide] are 0.435 nM and 3.79 nM.
In the case of `Cc1ncc(NC(=O)c2ccnc(C(F)(F)F)c2)cc1-c1cnc(Oc2ccccn2)c(C#N)c1` [Example 52, N-(5′-cyano-2-methyl-6′-(pyridin-2-yloxy)-[3,3′-bipyridin]-5-yl)-2-(trifluoromethyl) isonicotinamide], the IC50 against C-RAF amounted to 9.28 nM; at b-Raf (V600E), 27.2 nM.
In the same order, the values of `Cc1ccc(NC(=O)c2ccnc(C(F)F)c2)cc1-c1cnc(N2CCNCC2)c(C#N)c1` [Example 160, N-(3-(5-cyano-6-(piperazin-1-yl)pyridin-3-yl)-4-methylphenyl)-2-(difluoromethyl) isonicotinamide] are 0.157 nM and 1.59 nM.
On to `Cc1ccc(NC(=O)c2ccnc(C(C)(C)C#N)c2)cc1-c1cnc(-n2ccc(=O)cc2)c(C#N)c1` [Example 120, N-(3-(3′-cyano-4-oxo-4H-[1,2′-bipyridin]-5′-yl)-4-methylphenyl)-2-(2-cyanopropan-2-yl)isonicotinamide], for which the values for the IC50 at C-RAF and at b-Raf (V600E) were 6.84 nM and 34.6 nM, respectively.
Consider `CNc1ncc(-c2cc(NC(=O)c3cccc(C(F)(F)F)c3)ccc2C)cc1C#N` [Example 5, N-(3-(5-cyano-6-(methylamino)pyridin-3-yl)-4-methylphenyl)-3-(trifluoromethyl) benzamide], for which the IC50 on C-RAF came out at 0.18 nM; against b-Raf (V600E) it was 1.33 nM.
In the same order, the values of `Cc1ccc(NC(=O)c2ccnc(C3(C#N)CC3)c2)cc1-c1cnc(N2CCNCC2)c(C#N)c1` [Example 145, N-(3-(5-cyano-6-(piperazin-1-yl)pyridin-3-yl)-4-methylphenyl)-2-(1-cyanocyclopropyl) isonicotinamide] are 0.148 nM and 0.56 nM.
The matching figures for `Cc1cc(CC(=O)Nc2cnc(C)c(-c3cnc(N(C)C)c(C#N)c3)c2)on1` [Example 268, N-(5′-cyano-6′-(dimethylamino)-2-methyl-[3,3′-bipyridin]-5-yl)-2-(3-methylisoxazol-5-yl)acetamide]: 8 nM and 94.2 nM.
In the case of `Cc1ncc(NC(=O)c2cccc(C(F)(F)F)c2)cc1-c1cnc(N2CCOCC2)c(C#N)c1` [Example 66, N-(5′-cyano-2-methyl-6′-morpholino-[3,3′-bipyridin]-5-yl)-3-(trifluoromethyl) benzamide], the IC50 against C-RAF turned out to be 0.203 nM; against b-Raf (V600E), 0.852 nM.
In the same order, the values of `Cc1ccc(NC(=O)c2ccnc(C(C)(C)C#N)c2)cc1-c1cnc(NC2CC2)c(C#N)c1` [Example 19, N-(3-(5-cyano-6-(cyclopropylamino)pyridin-3-yl)-4-methylphenyl)-2-(2-cyanopropan-2-yl)isonicotinamide] are 0.397 nM and 2.15 nM.
`COCCNc1ncc(-c2cc(NC(=O)c3cc(C(F)(F)F)ccn3)ccc2C)cc1C#N` [Example 228, N-(3-(5-cyano-6-((2-methoxyethyl)amino)pyridin-3-yl)-4-methylphenyl)-4-(trifluoromethyl) picolinamide]: the IC50 against C-RAF came out at 0.409 nM; on b-Raf (V600E) it was 2 nM.
The matching figures for `Cc1ncc(NC(=O)c2ccnc(C(C)(C)C#N)c2)cc1-c1cnc(-c2ccn(C)n2)c(C#N)c1` [Example 109, N-(5′-cyano-2-methyl-6′-(1-methyl-1H-pyrazol-3-yl)-[3,3′-bipyridin]-5-yl)-2-(2-cyanopropan-2-yl)isonicotinamide]: 2.74 nM and 20 nM.
In the same order, the values of `COCCNc1ncc(-c2cc(NC(=O)c3cccc(C(F)F)c3)cnc2C)cc1C#N` [Example 199, N-(5′-cyano-6′-((2-methoxyethyl)amino)-2-methyl-[3,3′-bipyridin]-5-yl)-3-(difluoromethyl) benzamide] are 0.386 nM and 2.62 nM.
The matching figures for `Cc1ccc(NC(=O)c2cnnc(C(C)(C)C#N)c2)cc1-c1cnc(N2CC(C)(O)C2)c(C#N)c1` [Example 214, N-(3-(5-cyano-6-(3-hydroxy-3-methylazetidin-1-yl)pyridin-3-yl)-4-methylphenyl)-6-(2-cyanopropan-2-yl)pyridazine-4-carboxamide]: 0.741 nM and 4.72 nM.
For the compound `Cc1ncc(NC(=O)c2ccnc(C(C)(C)C#N)c2)cc1-c1cnc(Oc2ccccn2)c(C#N)c1` [Example 54, N-(5′-cyano-2-methyl-6′-(pyridin-2-yloxy)-[3,3′-bipyridin]-5-yl)-2-(2-cyanopropan-2-yl)isonicotinamide], the results for the IC50 at C-RAF and against b-Raf (V600E) were 7.88 nM and 34.7 nM, respectively.
For the compound `Cc1ncc(NC(=O)c2ccnc(C(C)(C)C#N)c2)cc1-c1cnc(N(C)C)c(C#N)c1` [Example 26, N-(5′-cyano-6′-(dimethylamino)-2-methyl-[3,3′-bipyridin]-5-yl)-2-(2-cyanopropan-2-yl)isonicotinamide], the 50% inhibitory concentration (IC50) against C-RAF is 1.78 nM; at b-Raf (V600E), 15 nM.
Regarding `Cc1ccc(NC(=O)c2cnnc(C(F)(F)F)c2)cc1-c1cnc(N2CCNCC2)c(C#N)c1` [Example 143, N-(3-(5-cyano-6-(piperazin-1-yl)pyridin-3-yl)-4-methylphenyl)-6-(trifluoromethyl) pyridazine-4-carboxamide], the IC50 against C-RAF stood at 0.842 nM; against b-Raf (V600E), 5.63 nM.
The matching figures for `Cc1ccc(NC(=O)c2cnnc(C(C)(C)F)c2)cc1-c1cnc(N2CC(C)(O)C2)c(C#N)c1` [Example 194, N-(3-(5-cyano-6-(3-hydroxy-3-methylazetidin-1-yl)pyridin-3-yl)-4-methylphenyl)-6-(2-fluoropropan-2-yl)pyridazine-4-carboxamide]: 0.285 nM and 1.53 nM.
The matching figures for `Cc1ncc(NC(=O)c2cc(C(F)(F)F)ccn2)cc1-c1cnc(N2CCOCC2)c(C#N)c1` [Example 223, N-(5′-cyano-2-methyl-6′-morpholino-[3,3′-bipyridin]-5-yl)-4-(trifluoromethyl) picolinamide]: 0.304 nM and 1 nM.
Consider `Cc1ccc(NC(=O)c2cc(C(C)(F)F)ccn2)cc1-c1cnc(N2CCOCC2)c(C#N)c1` [Example 241, N-(3-(5-cyano-6-morpholinopyridin-3-yl)-4-methylphenyl)-4-(1,1-difluoroethyl) picolinamide], for which the IC50 against C-RAF stood at 0.279 nM; against b-Raf (V600E), 1.5 nM.
The matching figures for `Cc1ccc(NC(=O)c2cc(C(C)(C)C#N)ccn2)cc1-c1cnc(N2CC(C)(O)C2)c(C#N)c1` [Example 232, N-(3-(5-cyano-6-(3-hydroxy-3-methylazetidin-1-yl)pyridin-3-yl)-4-methylphenyl)-4-(2-cyanopropan-2-yl)picolinamide]: 0.42 nM and 3.18 nM.
